Laboratory results published in paper PMC8881610 (Nature Communications, 2022).
Like-named read-outs stand apart in the source and are kept apart here.

How the values were obtained:
GIPR = target: T1, GIPR (Homo sapiens, UniProt P48546); experiment: cAMP accumulation assay (LANCE Ultra cAMP kit), GIPR WT, mutant or modified constructs; type: cell-based; set-up: acylated tirzepatide to the full-length or modified; Flag; expressed in transfected cells; host or cells: HEK293T; conditions: HEK293T; for Emax: HEK-293T
T1 sequence (P48546 22-466): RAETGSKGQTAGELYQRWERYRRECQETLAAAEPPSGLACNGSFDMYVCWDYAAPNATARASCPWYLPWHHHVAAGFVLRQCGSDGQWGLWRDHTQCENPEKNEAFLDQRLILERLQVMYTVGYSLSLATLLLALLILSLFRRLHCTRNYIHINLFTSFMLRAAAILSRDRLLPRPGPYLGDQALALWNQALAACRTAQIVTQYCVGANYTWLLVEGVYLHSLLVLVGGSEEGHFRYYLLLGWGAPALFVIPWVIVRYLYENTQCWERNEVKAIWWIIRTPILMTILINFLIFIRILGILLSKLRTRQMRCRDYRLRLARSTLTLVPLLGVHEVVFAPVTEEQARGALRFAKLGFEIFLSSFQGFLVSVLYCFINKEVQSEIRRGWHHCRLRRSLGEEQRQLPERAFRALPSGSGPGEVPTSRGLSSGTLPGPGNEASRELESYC
Method: (§1) Human embryonic kidney 293 cells containing SV40 large T-antigen (HEK293T) were cultured in DMEM (Gibco) supplemented with 10% (v/v) fetal bovine serum (FBS, Gibco), 1 mM sodium pyruvate (Gibco) and 100 units/mL penicillin and 100 μg/mL streptomycin at 37 °C in 5% CO2. Chinese hamster ovary (CHO-K1) cells were cultured in F-12 (Gibco) containing 10% FBS, 100 units/mL penicillin and 100 μg/mL streptomycin at 37 °C in 5% CO2. For cAMP and receptor expression assays, HEK293T cells were seeded into 6-well cell culture plates at a density of 7 × 10^5 cells per well. After overnight incubation, cells were transfected with GIPR, GLP-1R or GCGR construct using Lipofectamine 2000 or Lipofectamine 3000 transfection reagent (Invitrogen). For whole-cell binding assay, CHO-K1 cells were seeded into 96-well fibronectin-treated cell culture plates at a density of 3 × 10^4 cells per well. After overnight incubation, cells were transfected with GIPR, GLP-1R or GCGR construct using Lipofectamine 2000 transfection reagent (Invitrogen). Following 24 h culturing, the transfected cells were ready for use.
A BRIL fusion protein was added at the N-terminal of the ECD with a TEV protease site and 2GSA linker between them. C-terminal 45 amino acids (Q422-C466) of the receptor were truncated. LgBiT was added at the end of helix 8 with a 15-amino acid (15AA) polypeptide linker in between, followed by a TEV protease cleavage site and an OMBP-MBP tag. […] The construct and various mutants of human GIPR were cloned into pcDNA3.1 vector for cAMP accumulation and whole-cell binding assays.
(§2) For GIPR, GLP-1R and GCGR, multi-targeting agonist stimulated cAMP accumulation was measured by a LANCE Ultra cAMP kit (PerkinElmer). After 24 h culture, the transfected cells were seeded into 384-well microtiter plates at a density of 3,000 cells per well in HBSS supplemented with 5 mM HEPES, 0.1% (w/v) BSA or 0.1% (w/v) casein and 0.5 mM 3-isobutyl-1-methylxanthine. The cells were stimulated with different concentrations of peptide agonists for 40 min at RT. Eu-cAMP tracer and ULight^TM-anti-cAMP were then diluted by cAMP detection buffer and added to the plates separately to terminate the reaction. Plates were incubated at RT for 1 h and the fluorescence intensity measured at 620 nm and […] by an EnVision multilabel plate reader (PerkinElmer).

GCGR = GCGR (Homo sapiens, UniProt P47871); experiment: Whole-cell binding assay, competition with 125I-GCG; set-up: V5 (C); 6×His (C); expressed in transfected cells; host or cells: CHO-K1
Method: as §1
(§3) For GLP-1R and GCGR, CHO-K1 cells (30,000 cells/well) were seeded into Isoplate-96 plates and incubated for 24 h at 37 °C in 5% CO2. The WT or mutant constructs were transiently transfected using Lipofectamine 2000 transfection reagent as previous described. They were then washed twice using F-12 with 0.1% BSA or 0.1% casein, 33 mM HEPES, and incubated for 2 h at 37 °C. […] Cells were washed three times with ice-cold PBS and lysed in PBS with 1% Triton X-100, 20 mM Tris-HCl. After addition of scintillation cocktail (PerkinElmer), radioactivity (CPM) was counted on a MicroBeta^2 microplate counter (PerkinElmer). Data were normalized to the WT response and analyzed using three-parameter logistic equation.

GLP-1R [1] = target: T2, GLP-1R (Homo sapiens, UniProt P43220); experiment: Whole-cell binding assay, competition with 125I-GLP-1(7-36)NH2; set-up: Flag; expressed in transfected cells
Method: as §1, §3

GLP-1R [2] = target: T2, GLP-1R; experiment: cAMP accumulation assay, GLP-1R WT, mutant or modified constructs; type: cell-based; set-up: Flag; expressed in transfected cells; host or cells: HEK293T; conditions: HEK293T; for Emax: HEK-293T
Method: as §1
The human GLP-1R was modified with its native signal sequence (M1-P23) replaced by the HA signal peptide to facilitate receptor expression. To obtain a GLP-1R–Gs complex with good homogeneity and stability, we used the NanoBiT tethering strategy, in which the C terminus of GLP-1R was directly attached to LgBiT subunit followed by a TEV protease cleavage site and a double MBP tag. […] The constructs were cloned into both pcDNA3.1 and pFastBac vectors for functional assays in mammalian cells and protein expression in insect cells, respectively. Other constructs including the full-length and various mutants of human GLP-1R were cloned into pcDNA3.1 vector for cAMP accumulation and whole-cell binding assays.
as §2

[3] = GIPR WT, read-out: cAMP pEC50 (converted)
[4] = GIPR, n = 4, SEM, read-out: cAMP pEC50 ± S.E.M. (converted)
[5] = GLP-1R WT, 0.1% BSA, read-out: cAMP accumulation Emax
[6] = GLP-1R WT, 0.1% casein, read-out: cAMP accumulation Emax

GCGR, sequence (P47871 26-477): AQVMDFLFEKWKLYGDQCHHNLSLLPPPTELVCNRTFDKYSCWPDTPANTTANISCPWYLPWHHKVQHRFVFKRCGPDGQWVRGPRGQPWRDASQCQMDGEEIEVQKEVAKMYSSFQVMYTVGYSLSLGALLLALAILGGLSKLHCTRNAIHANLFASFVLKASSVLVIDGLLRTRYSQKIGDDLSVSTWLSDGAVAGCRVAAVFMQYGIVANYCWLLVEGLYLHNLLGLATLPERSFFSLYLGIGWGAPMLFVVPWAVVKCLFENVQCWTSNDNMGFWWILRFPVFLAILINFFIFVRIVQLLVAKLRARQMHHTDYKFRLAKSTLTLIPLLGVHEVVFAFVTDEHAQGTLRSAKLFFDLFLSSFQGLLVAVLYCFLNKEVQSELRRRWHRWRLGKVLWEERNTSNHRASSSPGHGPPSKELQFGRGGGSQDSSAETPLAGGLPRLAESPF
T2 sequence (P43220 24-463): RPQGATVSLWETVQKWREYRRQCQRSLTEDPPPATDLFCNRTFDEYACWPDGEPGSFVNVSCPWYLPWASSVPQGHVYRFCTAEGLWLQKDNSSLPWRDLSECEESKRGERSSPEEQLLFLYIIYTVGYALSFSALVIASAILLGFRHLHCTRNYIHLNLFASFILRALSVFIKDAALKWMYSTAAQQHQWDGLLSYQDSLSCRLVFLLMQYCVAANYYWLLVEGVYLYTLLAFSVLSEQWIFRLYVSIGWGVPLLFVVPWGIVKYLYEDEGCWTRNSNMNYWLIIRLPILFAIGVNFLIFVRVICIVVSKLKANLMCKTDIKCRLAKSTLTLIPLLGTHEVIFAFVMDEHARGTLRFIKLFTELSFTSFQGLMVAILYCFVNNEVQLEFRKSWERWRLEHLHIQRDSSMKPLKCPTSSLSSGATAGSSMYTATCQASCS

## CCCCCCCCCCCCCCCC(=O)N[C@@H](CCC(=O)NCCCC[C@H](NC(=O)[C@H](CC(=O)O)NC(=O)[C@H](CO)NC(=O)[C@@H](NC(=O)[C@H](Cc1ccccc1)NC(=O)[C@@H](NC(=O)CNC(=O)[C@H](CCC(N)=O)NC(=O)C(C)(C)NC(=O)[C@@H](N)Cc1c[nH]cn1)[C@@H](C)O)[C@@H](C)O)C(=O)N[C@@H](CO)C(=O)N[C@@H](CCCCN)C(=O)N[C@@H](Cc1ccc(O)cc1)C(=O)N[C@@H](CC(C)C)C(=O)N[C@@H](CC(=O)O)C(=O)N[C@@H](CCC(=O)O)C(=O)N[C@@H](CCCNC(=N)N)C(=O)N[C@@H](C)C(=O)N[C@@H](C)C(=O)N[C@@H](CCC(N)=O)C(=O)N[C@@H](CC(=O)O)C(=O)N[C@@H](Cc1ccccc1)C(=O)N[C@H](C(=O)N[C@@H](CCC(N)=O)C(=O)N[C@@H](Cc1c[nH]c2ccccc12)C(=O)N[C@@H](CC(C)C)C(=O)N[C@@H](CC(C)C)C(=O)N[C@@H](CC(=O)O)C(=O)NCC(=O)NCC(=O)N1CCC[C@H]1C(=O)N[C@@H](CO)C(=O)N[C@@H](CO)C(=O)NCC(=O)N[C@@H](C)C(=O)N1CCC[C@H]1C(=O)N1CCC[C@H]1C(=O)N1CCC[C@H]1C(=O)N[C@@H](CO)C(N)=O)C(C)C)C(=O)O [Peptide 20]
GIPR; [3]
  EC50: 0.0135 nM
GIPR; [4]
  EC50: 0.00447 nM
GIPR; GIPR WT, 0.1% BSA, read-out: cAMP accumulation Emax
  Emax: 99.9 ± 1.18%
GIPR; GIPR WT, 0.1% casein, read-out: cAMP accumulation Emax
  Emax: 100 ± 1.51%
GIPR; GIPR WT, read-out: cAMP Emax
  Emax: 99.2 ± 1.85%
GIPR; GIPR, n = 4, SEM, read-out: cAMP Emax ± S.E.M.
  Emax: 100 ± 1.48%
GCGR; Fig. 7c receptor binding profile, n = 3 in duplicate, SEM, read-out: GCGR (pIC50 ± S.E.M.) (converted)
  IC50: 107 nM
GCGR; GCGR WT, 0.1% BSA, CHO-K1, read-out: Binding pIC50 (converted)
  IC50: 55 nM
GCGR; GCGR WT, 0.1% casein, CHO-K1, read-out: Binding pIC50 (converted)
  IC50: 16.6 nM
GCGR; GCGR WT, CHO-K1
  binding Span: 99.29 ± 3.10 % WT
GCGR; GCGR WT, CHO-K1, read-out: binding pIC50 (converted)
  IC50: 89.1 nM
GLP-1R [1]; Fig. 7c receptor binding profile, n = 3 in duplicate, SEM, read-out: GLP-1R (pIC50 ± S.E.M.) (converted)
  IC50: 3.39 nM
GLP-1R [1]; GLP-1R WT, 0.1% casein, CHO-K1
  binding Span: 85.25 ± 8.33
GLP-1R [1]; GLP-1R WT, CHO-K1
  binding Span: 99.44 ± 2.88 % WT
GLP-1R [1]; GLP-1R WT, CHO-K1, read-out: binding pIC50 (converted)
  IC50: 6.17 nM
GLP-1R [2]; GLP-1R WT, read-out: cAMP pEC50 (converted)
  EC50: 0.00269 nM
GLP-1R [2]; GLP-1R, n = 4, SEM, read-out: cAMP pEC50 ± S.E.M. (converted)
  EC50: 0.00123 nM
GLP-1R [2]; [5]
  Emax: 99.24 ± 0.96%
GLP-1R [2]; [6]
  Emax: 98.5 ± 1.33%
GLP-1R [2]; GLP-1R WT, read-out: cAMP Emax
  Emax: 99.6 ± 1.37%
GLP-1R [2]; GLP-1R, n = 4, SEM, read-out: cAMP Emax ± S.E.M.
  Emax: 99.6 ± 1.17%

## CC[C@H](C)[C@H](NC(=O)[C@H](CC(C)C)NC(=O)[C@H](Cc1c[nH]c2ccccc12)NC(=O)[C@H](CCC(N)=O)NC(=O)[C@@H](NC(=O)[C@H](Cc1ccccc1)NC(=O)[C@H](C)NC(=O)[C@H](CCCCNC(=O)COCCOCCNC(=O)COCCOCCNC(=O)CC[C@H](NC(=O)CCCCCCCCCCCCCCCCCCC(=O)O)C(=O)O)NC(=O)[C@H](CCC(N)=O)NC(=O)[C@H](C)NC(=O)[C@@H](NC(=O)[C@H](CCCCN)NC(=O)[C@H](CC(=O)O)NC(=O)[C@H](CC(C)C)NC(=O)C(C)(C)NC(=O)[C@@H](NC(=O)[C@H](CO)NC(=O)[C@H](Cc1ccc(O)cc1)NC(=O)[C@H](CC(=O)O)NC(=O)[C@H](CO)NC(=O)[C@@H](NC(=O)[C@H](Cc1ccccc1)NC(=O)[C@@H](NC(=O)CNC(=O)[C@H](CCC(=O)O)NC(=O)C(C)(C)NC(=O)[C@@H](N)Cc1ccc(O)cc1)[C@@H](C)O)[C@@H](C)O)[C@@H](C)CC)[C@@H](C)CC)C(C)C)C(=O)N[C@@H](C)C(=O)NCC(=O)NCC(=O)N1CCC[C@H]1C(=O)N[C@@H](CO)C(=O)N[C@@H](CO)C(=O)NCC(=O)N[C@@H](C)C(=O)N1CCC[C@H]1C(=O)N1CCC[C@H]1C(=O)N1CCC[C@H]1C(=O)N[C@@H](CO)C(N)=O [Tirzepatide]
GIPR; [3]
  EC50: 0.0288 nM
GIPR; [4]
  EC50: 0.0126 nM
GCGR; Fig. 7c receptor binding profile, n = 3 in duplicate
  GCGR (pIC50 ± S.E.M.): N.B.
GLP-1R [2]; [5]
  Emax: 99.7 ± 1.5%
GLP-1R [2]; [6]
  Emax: 99.1 ± 1.73%

## CC[C@H](C)[C@H](NC(=O)[C@H](CC(C)C)NC(=O)[C@H](Cc1c[nH]c2ccccc12)NC(=O)[C@H](CCC(N)=O)NC(=O)[C@@H](NC(=O)[C@H](Cc1ccccc1)NC(=O)[C@H](C)NC(=O)[C@H](CCCCN)NC(=O)[C@H](CCC(N)=O)NC(=O)[C@H](C)NC(=O)[C@@H](NC(=O)[C@H](CCCCN)NC(=O)[C@H](CC(=O)O)NC(=O)[C@H](CC(C)C)NC(=O)C(C)(C)NC(=O)[C@@H](NC(=O)[C@H](CO)NC(=O)[C@H](Cc1ccc(O)cc1)NC(=O)[C@H](CC(=O)O)NC(=O)[C@H](CO)NC(=O)[C@@H](NC(=O)[C@H](Cc1ccccc1)NC(=O)[C@@H](NC(=O)CNC(=O)[C@H](CCC(=O)O)NC(=O)C(C)(C)NC(=O)[C@@H](N)Cc1ccc(O)cc1)[C@@H](C)O)[C@@H](C)O)[C@@H](C)CC)[C@@H](C)CC)C(C)C)C(=O)N[C@@H](C)C(=O)NCC(=O)NCC(=O)N1CCC[C@H]1C(=O)N[C@@H](CO)C(=O)N[C@@H](CO)C(=O)NCC(=O)N[C@@H](C)C(=O)N1CCC[C@H]1C(=O)N1CCC[C@H]1C(=O)N1CCC[C@H]1C(=O)N[C@@H](CO)C(N)=O [Non-acylated tirzepatide]
GIPR; GIPR WT, 0.1% BSA, read-out: cAMP accumulation pEC50 (converted)
  EC50: 0.00182 nM
GLP-1R [1]; GLP-1R WT, 0.1% casein, CHO-K1
  binding Span: 80.39 ± 9.18
GLP-1R [1]; GLP-1R WT, 0.1% casein, CHO-K1, read-out: Binding pIC50 (converted)
  IC50: 24.5 nM
GLP-1R [1]; GLP-1R, effect of tirzepatide acylation, CHO-K1
  binding Span: 81.36 ± 4.36 % WT or Tirzepatide
GLP-1R [1]; GLP-1R, effect of tirzepatide acylation, CHO-K1, read-out: binding pIC50 (converted)
  IC50: 12.3 nM
GLP-1R [2]; GLP-1R WT, 0.1% BSA, read-out: cAMP accumulation pEC50 (converted)
  EC50: 0.00468 nM
GLP-1R [2]; GLP-1R, effect of tirzepatide acylation, read-out: cAMP pEC50 (converted)
  EC50: 0.00794 nM
GLP-1R [2]; [5]
  Emax: 99.1 ± 1.65%
GLP-1R [2]; [6]
  Emax: 98.76 ± 0.97%
GLP-1R [2]; GLP-1R, effect of tirzepatide acylation, read-out: cAMP Emax
  Emax: 100 ± 0.88%
